Key:
[1] = tested on: invasive prostate cancer cell lines; experiment: Matrigel invasion assay; format: cell-based, human; settings: four invasive prostate cancer cell lines, 24-hour incubation
Procedure: 2-5×10^5 cells were seeded onto 8-μm Matrigel-coated fluoroblok transwells with serum-free medium and various concentrations of ESK981. Medium containing 10% FBS in the lower chamber served as a chemoattractant. After 24-hour incubation, invaded cells were stained with […] at 37° C., and fluorescence intensity was quantified with a TECAN M1000 plate reader.

[2] = tested on: MDA-PCa-146-12 AR-positive PDX; experiment: MDA-PCa-146-12 patient-derived xenograft; format: in vivo, mouse; settings: 30 mg/kg
Procedure: The University of Texas M.D. Anderson Cancer Center (MDACC) patient-derived xenografts (PDX) series has been previously described^62-64. PDXs were derived from men with CRPC undergoing palliative resections using described protocols^65,66. MDA-PCa-146-12 and 146-10 PDX were derived from a patient initially diagnosed with Gleason 3+4=7 prostate adenocarcinoma with an initial PSA of 10.7 ng/ml. […] PDXs were maintained in male SCID mice by surgically implanting 2 mm^3 tumors coated with 100% Matrigel to both flanks of mice. Once tumors reached 100-200 mm^3 in size, mice were randomized and divided into different treatment groups receiving either 30 mg/kg ESK981 or vehicle (ORA-PLUS) by oral gavage 5 days per week.

[3] = tested on: DU145 tumors; experiment: DU145 xenograft tumor model; format: in vivo, mouse; settings: 30 mg/kg
Procedure: Four- to six-week old male CB17 severe combined immunodeficiency (SCID) mice were procured from the University of Michigan breeding colony. Subcutaneous tumors were established at both sides of the dorsal flank of mice. Tumors were measured at least biweekly using digital calipers following the formula (π/6) (L×W2), where L=length and W=width of the tumor. At the end of the studies, mice were sacrificed and tumors extracted and weighed. The University of Michigan University Committee on the Use and Care of Animals (UCUCA) approved all in vivo studies. For the VCaP castration-resistant tumor model, 3×10^6 VCaP cells were injected subcutaneously into the dorsal flank on both sides of the mice in serum-free medium with 50% Matrigel (BD Biosciences). Once tumors reached a palpable stage (˜200 mm^3), tumor-bearing mice were castrated. Once tumors grew back to the pre-castration size, mice were randomized and treated with either 30 mg/kg, 60 mg/kg ESK981, or vehicle (ORA-PLUS) by oral gavage 5 days per week. For the DU145 xenograft tumor model, 1×10^6 DU145 cells were injected subcutaneously into the dorsal flank on both sides of the mice in serum-free medium with 50% Matrigel. When tumors reached ˜100 mm^3, tumor-bearing mice were randomized and treated with 30 mg/kg ESK981 or vehicle (ORA-PLUS) by oral gavage 5 days per week.

[4] = tested on: Atg8; experiment: yeast autophagy detection (Atg8 immunoblot); format: cell-based; settings: drug permeable yeast strain (prd5Δ), 3 μM, nitrogen deprivation
Procedure: The yeast strains used in this study were YAB499 (SEY6210, pho13Δ pho8Δ60, pdr5Δ::Kan). Protein extraction and immunoblot were performed as previously described^59. Antisera to Atg8 and Pgk1 (a generous gift from Dr. Jeremy Thorner, University of California, Berkeley) were used as previously described. Cells were treated with either 3 μM ESK981, 3 μM cabozantinib, or the equivalent amount of DMSO as control for the indicated times.

[5] = tested on: LAMP1 in DU145 cells; experiment: LAMP1 immunofluorescence; format: cell-based, human; settings: 300 nM, 24 hours
Procedure: For LAMP1 immunofluorescence, cells were seeded on coverslips overnight and treated with ESK981 at 300 nM for 24 hours. Coverslips were fixed with 10% paraformaldehyde and permeabilized with 10% saponin. Coverslips were then blocked with 10% goat serum and stained with LAMP1 antibody (Cat No. 9091, Cell Signaling Technology) and fluorescently-labelled secondary antibody. Confocal images were taken using a Nikon A1 confocal microscope.

[6] = tested on: Myc-CaP tumors; experiment: Myc-CaP syngeneic murine prostate model in FVB mice; format: in vivo, mouse
Procedure: MYC-driven murine prostate cancer cells (Myc-CaP) were injected at a density of 1×10^6 subcutaneously into both flanks of 4- to 6-week old FVB mice (Charles River Laboratories) in serum-free medium with 50% Matrigel. When tumors reached ˜50 mm^3, tumor-bearing mice were randomized and treated with 15 mg/kg or 30 mg/kg ESK981 or vehicle (ORA-PLUS) by oral gavage 5 days per week. For the ESK981 and anti-PD-1 combination study, 15 mg/kg ESK981 or vehicle were given 5 days per week by oral gavage, while anti-PD-1 (Cat No. BE0146, BioXcell) or isotype control (Cat No. BE0089, BioXcell) were given at 200 μg per mouse 3 times per week by intraperitoneal injection (i.p.). For the ESK981 and anti-CXCR3 combination study, 15 mg/kg ESK981 or vehicle were given 5 days per week by oral gavage, while anti-CXCR3 (Cat No. BE0249, BioXcell) or isotype control (Cat No. BE0091, BioXcell) were given at 100 μg per mouse 3 times per week by i.p. For the shPikfyve study, Myc-CaP shPikfyve cells were injected at a density of 2×10^6 subcutaneously into both flanks of 4- to 6-week old NSG or FVB mice in serum-free medium with 50% Matrigel. When tumors reached 100 mm^3, tumor-bearing mice were randomized and treated with normal diet or doxycycline 625 mg/kg diet (Envigo). For the shPikfyve and anti-PD-1 combination study, Myc-CaP shPikfyve cells were injected at a density of 2×10^6 subcutaneously into both flanks of 4- to 6-week old FVB mice in serum-free medium with 50% Matrigel. When tumors reached 100 mm^3, tumor-bearing mice were randomized and treated with normal diet or doxycycline 625 mg/kg diet for 7 days, and then anti-PD-1 or isotype control were given at 200 μg per mouse 3 times per week in combination with normal or doxycycline diet.

[7] = molecular target: PIKfyve (Homo sapiens, UniProt Q9Y2I7); experiment: kinase dissociation constant analysis (KdELECT); format: binding; set-up: purchased DiscoveRX (KINOMEscan scanLIPID panel; KdELECT); settings: 11-point dose-response, duplicate
Procedure: Quantitative binding constants (Kd) of ESK981 to PIKfyve, PIP5K1A, PIP5K1C, and PIK3CA were generated using KdELECT® platform (DiscoveRX). An 11-point dose-response of ESK981 (0.05-3000 nM) was used, and the experiment was performed in duplicate. Detailed information is described on the DiscoveRX website (www.discoverx.com).

[8] = oral gavage 5 days per week, SCID mice
[9] = 15 mg/kg solo treatment, four weeks

Chain of PIKfyve (Q9Y2I7 whole entry): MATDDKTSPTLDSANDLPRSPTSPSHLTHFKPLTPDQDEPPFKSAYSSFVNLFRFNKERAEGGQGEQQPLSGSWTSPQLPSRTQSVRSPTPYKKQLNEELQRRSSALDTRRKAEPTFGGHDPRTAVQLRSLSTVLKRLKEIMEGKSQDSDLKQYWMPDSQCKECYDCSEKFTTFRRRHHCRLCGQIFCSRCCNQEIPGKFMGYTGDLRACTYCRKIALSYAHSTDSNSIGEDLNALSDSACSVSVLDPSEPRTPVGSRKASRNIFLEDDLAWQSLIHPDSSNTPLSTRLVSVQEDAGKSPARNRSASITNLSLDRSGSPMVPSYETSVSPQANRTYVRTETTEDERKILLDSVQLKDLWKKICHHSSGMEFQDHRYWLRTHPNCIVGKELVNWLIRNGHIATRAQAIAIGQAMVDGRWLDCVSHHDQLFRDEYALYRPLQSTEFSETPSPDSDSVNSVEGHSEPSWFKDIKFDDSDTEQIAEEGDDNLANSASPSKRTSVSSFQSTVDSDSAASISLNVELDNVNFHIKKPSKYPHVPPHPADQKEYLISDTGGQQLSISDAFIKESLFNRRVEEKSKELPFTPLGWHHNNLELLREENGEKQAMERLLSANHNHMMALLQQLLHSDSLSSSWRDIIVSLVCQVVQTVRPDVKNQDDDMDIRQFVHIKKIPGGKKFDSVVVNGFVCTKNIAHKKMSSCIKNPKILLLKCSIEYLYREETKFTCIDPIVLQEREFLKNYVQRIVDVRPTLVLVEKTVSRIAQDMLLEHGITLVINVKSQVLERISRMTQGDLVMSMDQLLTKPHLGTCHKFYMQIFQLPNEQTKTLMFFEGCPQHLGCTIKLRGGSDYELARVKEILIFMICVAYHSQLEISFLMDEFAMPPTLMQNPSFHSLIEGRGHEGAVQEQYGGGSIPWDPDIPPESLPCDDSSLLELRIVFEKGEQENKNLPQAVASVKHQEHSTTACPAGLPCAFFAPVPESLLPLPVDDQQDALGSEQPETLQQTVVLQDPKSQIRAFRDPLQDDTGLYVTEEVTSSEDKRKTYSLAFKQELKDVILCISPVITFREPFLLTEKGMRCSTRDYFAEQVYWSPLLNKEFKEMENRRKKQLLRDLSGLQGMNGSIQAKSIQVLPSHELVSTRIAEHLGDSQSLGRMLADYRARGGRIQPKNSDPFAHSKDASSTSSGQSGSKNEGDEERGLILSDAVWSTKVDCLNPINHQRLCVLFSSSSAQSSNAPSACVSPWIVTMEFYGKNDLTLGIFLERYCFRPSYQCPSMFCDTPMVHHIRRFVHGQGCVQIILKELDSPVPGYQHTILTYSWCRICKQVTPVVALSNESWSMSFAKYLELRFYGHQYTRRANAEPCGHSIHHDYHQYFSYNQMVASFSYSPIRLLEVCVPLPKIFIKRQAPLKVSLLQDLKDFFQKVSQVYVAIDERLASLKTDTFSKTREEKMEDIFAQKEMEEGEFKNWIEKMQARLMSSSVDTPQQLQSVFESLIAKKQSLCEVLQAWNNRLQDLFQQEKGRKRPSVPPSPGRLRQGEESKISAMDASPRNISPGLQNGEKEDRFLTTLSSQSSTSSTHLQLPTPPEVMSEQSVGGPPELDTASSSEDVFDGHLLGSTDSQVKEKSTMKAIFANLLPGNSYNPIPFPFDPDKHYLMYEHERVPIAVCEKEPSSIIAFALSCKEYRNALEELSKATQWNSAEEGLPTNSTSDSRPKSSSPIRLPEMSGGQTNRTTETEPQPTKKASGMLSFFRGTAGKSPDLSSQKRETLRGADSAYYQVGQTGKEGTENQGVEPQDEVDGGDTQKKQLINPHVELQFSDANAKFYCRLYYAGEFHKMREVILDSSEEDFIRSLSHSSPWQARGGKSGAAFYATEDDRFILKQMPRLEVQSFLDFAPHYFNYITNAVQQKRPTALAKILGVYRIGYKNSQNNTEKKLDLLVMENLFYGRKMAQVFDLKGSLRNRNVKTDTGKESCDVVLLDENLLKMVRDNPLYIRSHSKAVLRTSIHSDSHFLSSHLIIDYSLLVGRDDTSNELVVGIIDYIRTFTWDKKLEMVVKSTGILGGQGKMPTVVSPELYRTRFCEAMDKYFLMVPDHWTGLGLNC

Q: With `CC(C)Cn1c2ccc(Nc3ncccn3)cc2c2c3c(c4c(c21)CCc1nn(C)cc1-4)C(=O)NC3` [ESK981, 13-isobutyl-4-methyl-10-(pyrimidin-2-ylamino)-1,2,4,7,8,13-hexahydro-6H-indazolo[5,4-a]pyrrolo[3,4-c]carbazol-6-one] as the molecule, how does the invasion [1] read?
A: The invasion was “inhibited invasion in a dose-dependent manner”.

Q: What about the tumor weights [2] of the same molecule?
A: Its tumor weights is “significant decreases in tumor weights”.

Q: And the tumor growth [2, 8]?
A: The tumor growth was “Significant inhibition of tumor growth”.

Q: And the tumor weights [3]?
A: The tumor weights was “significant decreases in tumor weights”.

Q: And the tumor growth [3, 8]?
A: The tumor growth was “Significant inhibition of tumor growth”.

Q: And the “lipidated Atg8” value [4]?
A: Its value is “increase in lipidated Atg8”.

Q: What about the “LAMP1 staining of ESK981-induced vacuoles” value [5] of the same molecule?
A: The value was “positive for the lysosomal marker LAMP1”.

Q: What about the “effect of co-treatment on the anti-PD-1 tumor inhibitory effect” value ([6]; 15 mg/kg ESK981 with anti-PD-1, 6 weeks) of the same molecule?
A: Its value is “strongly enhanced”.

Q: And the “Cd3 mRNA in tumors” value [6, 9]?
A: The value was “upregulated”.

Q: What about the “Cxcl10 mRNA in tumors” value [6, 9] of the same molecule?
A: Its value is “upregulated”.

Q: What about the “Cd3 mRNA levels in tumors” value ([6]; 15 mg/kg, 30 mg/kg) of the same molecule?
A: Its value is “dose-dependent upregulation”.

Q: And the “tumor doubling time (progression-free survival)” value ([6]; 15 mg/kg, 30 mg/kg)?
A: Its value is “significantly increased tumor doubling time”.

Q: And the “average Cxcl10 levels in tumors” value ([6]; 15 mg/kg, 30 mg/kg, dose-dependent)?
A: Its value is “significantly increased”.

Q: What about the tumor growth ([6]; 15 mg/kg, 30 mg/kg, oral gavage 5 days per week, three weeks) of the same molecule?
A: The tumor growth was “dose-dependent growth inhibition”.

Q: What about the “LC3 lipidation in tumors” value ([6]; 15 mg/kg, five days of treatment) of the same molecule?
A: The value was “elevated LC3 lipidation”.

Q: And the bioluminescent-negative tumors ([6]; 30 mg/kg group, day 19)?
A: Its bioluminescent-negative tumors is “five out of ten”.

Q: What about the “CD3+ T cell trafficking in the tumor microenvironment (Cd3 RNA ISH)” value ([6]; single agents) of the same molecule?
A: Its value is “increased”.

Q: And the Kd [7]?
A: Its Kd is 12 nM.
